# In patent publication US11591288B2, “Compositions and methods for treating atherosclerotic cardiovascular disease” (GAVISH-GALILEE BIO APPLICATIONS LTD., priority 2017, dated 2023):
# Read-outs that look alike come from different tables or passages of the source.
# Assays:
# [1] = tested on: J774A.1 macrophages; test: Ox-LDL-induced foam cell formation, Oil Red O staining; assay type: cell-based, murine
# Description: J774A.1 macrophage cells were grown in RPMI 1640 media containing 10% FBS in cell culture flask till ˜90% confluence (37° C. incubator containing 5% CO2). The cells were incubated at 37° C. overnight under sterile conditions, approximately 1×10^5 J774.1 cells/well in a 96-well plate. Macrophage cells were incubated for an additional 24 h with lyso-DGTS (50 and 100 μg/ml), rePON1 (50 μg/ml), or rePON1 preincubated with different concentrations of lyso-DGTS (10, 20, 50 and 100 μg/ml). The cells were washed and ox-LDL (25 μg/ml in a RPMI medium) was added for another 24 h to yield foam cells. The cells were washed 3 times with PBS, following fixation with 4% formaldehyde for 10 min, the cells were stained with Oil Red O (0.35 mg/100 ml in 60% isopropanol; Sigma-Aldrich) for 15 min at 37° C. to evaluate the characteristic lipid accumulation in macrophage-derived foam cells. Foam cell formation was observed under microscope.
# The density of lipid content was evaluated by alcohol extraction after staining. The absorbance at 514 nm was measured using microplate reader (Infinite M200 PRO fluorescence spectrophotometer (Tecan)).
# Macrophages uptake of ox-LDL, forming foam cell, is the hallmark of atherogenesis. The ability of lyso-DGTS or rePON1 incubated with lyso-DGTS to attenuate foam cell formation was examined. […]
# [2] = molecular target: APOA1 (Homo sapiens, UniProt P02647); test: APOA1-lyso-DGTS interaction, Trp fluorescence quenching; assay type: binding; details: for Kd: read-out: Binding constant Ka, lyso-DGTS-APOA1 (converted)
# APOA1, sequence (P02647 19-267, species assumed): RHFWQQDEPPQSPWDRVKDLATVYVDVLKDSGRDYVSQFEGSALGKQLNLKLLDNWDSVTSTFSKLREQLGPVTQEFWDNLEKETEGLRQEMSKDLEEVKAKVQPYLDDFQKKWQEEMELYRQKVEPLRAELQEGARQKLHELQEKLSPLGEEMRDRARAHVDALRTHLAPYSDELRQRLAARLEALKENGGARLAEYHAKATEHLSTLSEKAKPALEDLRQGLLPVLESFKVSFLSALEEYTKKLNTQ
# Description: The Trp-fluorescence-quenching method was further used to examine the interaction between lyso-DGTS and APOA1, the major protein component of HDL. Ka and thermodynamic parameters were also calculated (Table 6). […] The values obtained for n were not affected by temperature and were equal to=1 (Table 6).
# The thermodynamic parameters: enthalpy (ΔH), entropy (ΔS), and free energy (ΔG) were calculated to characterize the APOA1-lyso-DGTS interaction type.
# [3] = tested on: J774A.1 macrophages; test: HDL-mediated cholesterol efflux from macrophage cells; assay type: cell-based, murine; details: 16.5% without lyso-DGTS
# Description: Cholesterol efflux Fluorometric Assay Kit (Cell-Based), Biovision was used to measure the effect of lyso-DGTS on HDL-cholesterol efflux.
# J774.1 macrophage cells were grown in RPMI 1640 media containing 10% FBS in cell culture flask till ˜90% confluence (37° C. incubator containing 5% CO2). The cells were splitted under sterile conditions using basic cell culture techniques and plate to approximately 1×10^5 cells/well in a 96-well plate (white plate with clear bottom) using 100 μl media/well. After 2 h, the cells attached to the plates, washed with RPMI 1640 media (no serum added) and labeled with 50 μl labeling reagent and 50 μl equilibration buffer, supplied by the kit, for 16 h. 100 μl equilibration buffer alone were added to the background control for measuring background fluorescence. The cells were washed with media and treated for another 4-6 h with 100 μl of RPMI 1640 media containing HDL (25 μg protein) preincubated with lyso-DGTS at various concentrations (0, 10, 20, 50, and 100 μg/ml) for 4 h. To the negative control was added RPMI 1640 media alone.
# The fluorescence of the supernatant was measured (excitation/emission=482/515 nm). The cells were solubilized adding 100 μl of Cell Lysis Buffer and shaking on a plate shaker for 30 min at room temperature, and its fluorescence was also measured.
# Cholesterol efflux of the treatments was calculated by dividing the fluorescence intensity of the media by total fluorescence intensity of the cell lysate of the same treatment and media.
# HDL removes cholesterol from cells, including macrophages. HDL particles were incubated with lyso-DGTS at different concentrations. The HDL ability to efflux cholesterol from J774A.1 macrophages was measured using flouromtric assay (cell-based cholesterol efflux flouromtric assay kit, supplied by Biovision) and expressed as % of cholesterol efflux. […] The cholesterol removal enhanced from 16.5% (without lyso-DGTS) to 22.5%, 31.5%, 36.5%, and 46.5% after incubation with lyso-DGTS at 10, 20, 50, and 100 μg/ml, respectively (FIG. 8).
# [4] = tested on: rePON1; test: rePON1 arylesterase activity (phenyl acetate assay) after incubation with lyso-DGTS; assay type: biochemical; details: 0-100 μg/ml lyso-DGTS, 2 or 4 h, 37° C.
# Description: To 200 μl of rePON1 solution (5 μg/ml) in Tris-HCl buffer pH=8.4 was added 1 μl of lyso-DGTS dissolved in dimethyl sulfoxide (DMSO) to a final concentration of 1, 5, 10, 50, and 100 μg/ml. 1 μl DMSO was added to the control rePON1 solution. The mixtures were incubated at 37° C. for 2, 4, 24 or 48 h.
# 10 μl from each solution were taken to a UV 96-well microplate wells containing 90 μl Tris-HCL buffer pH=8.4 with 1 mM CaCl2 (activity buffer). Then 100 μl phenyl acetate, 2 mM in the activity buffer was added (prepared from a stock of 100 mM phenyl acetate in DMSO). Phenyl acetate hydrolysis rate was measured at 270 nm, once in 25 seconds, for 15 minutes using SpectraMax M2 Reader. One unit of esterase activity was equal to the hydrolysis of 1 μmol of phenyl acetate/min. Lactonase and esterase unit activity were calculated by the following equation: Unit=slope (mOD/min)×5(per ml)×666.7(dilution)/700. Human Serum PON1 Lactonase Activity
# The effect of lyso-DGTS on lactonase and arylesterase activities of rePON1 was examined. rePON1 (5 μg/ml in Tris buffer pH=8.4) was incubated with different concentrations of lyso-DGTS for 2, 4, 24, and 48 h at 37° C., and its lactonase and aryesterase activities were measured using dihydrocoumarin and phenyl acetate assays, respectively.
smiles,measurement,setting,value
"CC/C=C\C/C=C\C/C=C\C/C=C\C/C=C\CCCC(=O)OCC(O)COCCC(C(=O)[O-])[N+](C)(C)C (stereo not drawn) [lyso-DGTS, lyso-diacylglyceryltrimethylhornmoserine]",enhancement of rePON1 ability to inhibit foam cell formation,"[1]; 100 μg/ml lyso-DGTS vs rePON1 alone, not significant",~10%
same,reduction of oil red staining intensity,"[1]; lyso-DGTS (50 μg/ml) alone, then ox-LDL 25 μg/ml 24 h",32%
same,"number of binding sites (n), lyso-DGTS-APOA1",[2]; 298 K,1.01 ± 0.05
same,"ΔG, lyso-DGTS-APOA1 interaction",[2]; 298 K,-4.58 kJ/mol
same,Kd,[2]; 298 K (25° C.),422 µM
same,"number of binding sites (n), lyso-DGTS-APOA1",[2]; 310 K,1.23 ± 0.05
same,"ΔG, lyso-DGTS-APOA1 interaction",[2]; 310 K,-6.125 kJ/mol
same,Kd,[2]; 310 K (37° C.),43.9 µM
same,"ΔH, lyso-DGTS-APOA1 interaction",[2]; from 298 and 310 K,34.49 kJ/mol
same,"ΔS, lyso-DGTS-APOA1 interaction",[2]; from 298 and 310 K,131.126 J/mol K
same,HDL-mediated cholesterol efflux,[3]; HDL incubated with 10 μg/ml lyso-DGTS,22.5%
same,HDL-mediated cholesterol efflux,[3]; HDL incubated with 20 μg/ml lyso-DGTS,31.5%
same,HDL-mediated cholesterol efflux,[3]; HDL incubated with 50 μg/ml lyso-DGTS,36.5%
same,HDL-mediated cholesterol efflux,[3]; HDL incubated with 100 μg/ml lyso-DGTS,46.5%
same,effect on rePON1 arylesterase activity,[4],increases rePON1 lactonase and arylesterase activities in a dose and time dependent manner
